# Reference: patent US20240000872A1, “NOVEL BACTERIOPHAGE THAT LYSES ACINETOBACTER GENUS BACTERIA HAVING RESISTANCE TO ANTIBIOTICS” (priority 2020, published 2024)
# Test system: Acinetobacter baumannii strains
# Assay: Antibiotic susceptibility test (CLSI disk diffusion test method, read per CLSI 2016); on antibiotic susceptibility S/I/R: key: ‘S’ means susceptible; ‘I’ means intermediate; ‘R’ means resistant; on antibiotic susceptibility class: key: ‘S’ means susceptible; ‘I’ means intermediate; ‘R’ means resistant; on susceptibility category (S/I/R): key: ‘S’ means susceptible; ‘I’ means intermediate; ‘R’ means resistant
# Format: cell-based
# Parameters: antibiotic susceptibility test value / susceptibility test value (number given before S/I/R) / antibiotic susceptibility value: unit not given here
substance,measurement,setting,value
gentamicin,antibiotic susceptibility class,host strain YMC14/01/C29,R
same,antibiotic susceptibility test value,host strain YMC14/01/C29,16
same,antibiotic susceptibility class,host strain YMC14/01/IP122,R
same,antibiotic susceptibility test value,host strain YMC14/01/IP122,16
same,antibiotic susceptibility class,host strain YMC14/01/L8,R
same,antibiotic susceptibility test value,host strain YMC14/01/L8,16
same,antibiotic susceptibility class,host strain YMC14/01/P31,R
same,antibiotic susceptibility test value,host strain YMC14/01/P31,16
same,antibiotic susceptibility class,host strain YMC14/01/P117,R
same,antibiotic susceptibility test value,host strain YMC14/01/P117,16
same,antibiotic susceptibility class,host strain YMC14/01/P224,R
same,antibiotic susceptibility test value,host strain YMC14/01/P224,16
same,antibiotic susceptibility class,host strain YMC14/01/P727,R
same,antibiotic susceptibility test value,host strain YMC14/01/P727,16
same,antibiotic susceptibility class,host strain YMC14/01/P728,R
same,antibiotic susceptibility test value,host strain YMC14/01/P728,16
same,antibiotic susceptibility class,host strain YMC14/01/R130,R
same,antibiotic susceptibility test value,host strain YMC14/01/R130,16
same,antibiotic susceptibility class,host strain YMC14/01/R160,R
same,antibiotic susceptibility test value,host strain YMC14/01/R160,16
same,antibiotic susceptibility class,host strain YMC14/01/R198,R
same,antibiotic susceptibility test value,host strain YMC14/01/R198,16
same,antibiotic susceptibility class,host strain YMC14/01/R257,S
same,antibiotic susceptibility test value,host strain YMC14/01/R257,1
same,antibiotic susceptibility class,host strain YMC14/01/R270,R
same,antibiotic susceptibility test value,host strain YMC14/01/R270,16
same,antibiotic susceptibility class,host strain YMC14/01/R324,R
same,antibiotic susceptibility test value,host strain YMC14/01/R324,16
same,antibiotic susceptibility class,host strain YMC14/01/R443,R
same,antibiotic susceptibility test value,host strain YMC14/01/R443,16
same,antibiotic susceptibility class,host strain YMC14/01/R451,R
same,antibiotic susceptibility test value,host strain YMC14/01/R451,16
same,antibiotic susceptibility class,host strain YMC14/01/R560,S
same,antibiotic susceptibility test value,host strain YMC14/01/R560,2
same,antibiotic susceptibility class,host strain YMC14/01/R617,R
same,antibiotic susceptibility test value,host strain YMC14/01/R617,16
same,antibiotic susceptibility class,host strain YMC14/01/R671,R
same,antibiotic susceptibility test value,host strain YMC14/01/R671,16
same,antibiotic susceptibility class,host strain YMC14/01/R732,R
same,antibiotic susceptibility test value,host strain YMC14/01/R732,16
same,antibiotic susceptibility class,host strain YMC14/01/R767,R
same,antibiotic susceptibility test value,host strain YMC14/01/R767,16
same,antibiotic susceptibility class,host strain YMC14/01/R904,R
same,antibiotic susceptibility test value,host strain YMC14/01/R904,16
same,antibiotic susceptibility class,host strain YMC14/01/R905,R
same,antibiotic susceptibility test value,host strain YMC14/01/R905,16
same,antibiotic susceptibility class,host strain YMC14/01/R921,I
same,antibiotic susceptibility test value,host strain YMC14/01/R921,8
same,antibiotic susceptibility class,host strain YMC14/01/R941,R
same,antibiotic susceptibility test value,host strain YMC14/01/R941,16
same,antibiotic susceptibility class,host strain YMC14/01/R958,R
same,antibiotic susceptibility test value,host strain YMC14/01/R958,16
same,antibiotic susceptibility class,host strain YMC14/01/R1006,R
same,antibiotic susceptibility test value,host strain YMC14/01/R1006,16
same,antibiotic susceptibility class,host strain YMC14/01/R1199,R
same,antibiotic susceptibility test value,host strain YMC14/01/R1199,16
same,antibiotic susceptibility class,host strain YMC14/01/R1659,R
same,antibiotic susceptibility test value,host strain YMC14/01/R1659,16
same,antibiotic susceptibility class,host strain YMC14/01/R1722,R
same,antibiotic susceptibility test value,host strain YMC14/01/R1722,16
same,antibiotic susceptibility class,host strain YMC14/01/R1752,R
same,antibiotic susceptibility test value,host strain YMC14/01/R1752,16
same,antibiotic susceptibility class,host strain YMC14/01/R2429,R
same,antibiotic susceptibility test value,host strain YMC14/01/R2429,16
same,antibiotic susceptibility class,host strain YMC14/01/R2572,R
same,antibiotic susceptibility test value,host strain YMC14/01/R2572,16
same,antibiotic susceptibility class,host strain YMC14/01/R2855,R
same,antibiotic susceptibility test value,host strain YMC14/01/R2855,16
same,antibiotic susceptibility class,host strain YMC14/01/R2945,R
same,antibiotic susceptibility test value,host strain YMC14/01/R2945,16
same,antibiotic susceptibility class,host strain YMC14/01/R3007,R
same,antibiotic susceptibility test value,host strain YMC14/01/R3007,16
same,antibiotic susceptibility class,host strain YMC14/01/R3129,R
same,antibiotic susceptibility test value,host strain YMC14/01/R3129,16
same,antibiotic susceptibility class,host strain YMC14/01/R3317,R
same,antibiotic susceptibility test value,host strain YMC14/01/R3317,16
same,antibiotic susceptibility class,host strain YMC14/01/R3474,R
same,antibiotic susceptibility test value,host strain YMC14/01/R3474,16
same,antibiotic susceptibility class,host strain YMC14/01/R3574,R
same,antibiotic susceptibility test value,host strain YMC14/01/R3574,16
same,antibiotic susceptibility class,host strain YMC14/01/U313,R
same,antibiotic susceptibility test value,host strain YMC14/01/U313,16
same,antibiotic susceptibility class,host strain YMC14/01/U318,R
same,antibiotic susceptibility test value,host strain YMC14/01/U318,16
same,antibiotic susceptibility class,host strain YMC14/02/L18,R
same,antibiotic susceptibility test value,host strain YMC14/02/L18,16
same,antibiotic susceptibility class,host strain YMC14/02/P47,R
same,antibiotic susceptibility test value,host strain YMC14/02/P47,16
same,antibiotic susceptibility class,host strain YMC14/02/R1860,I
same,antibiotic susceptibility test value,host strain YMC14/02/R1860,8
same,antibiotic susceptibility class,host strain YMC14/02/R2417,R
same,antibiotic susceptibility test value,host strain YMC14/02/R2417,16
same,antibiotic susceptibility class,host strain YMC14/02/R2599,S
same,antibiotic susceptibility test value,host strain YMC14/02/R2599,2
same,antibiotic susceptibility class,host strain YMC14/02/R2668,R
same,antibiotic susceptibility test value,host strain YMC14/02/R2668,16
same,antibiotic susceptibility class,host strain YMC14/02/R2758,R
same,antibiotic susceptibility test value,host strain YMC14/02/R2758,16
same,antibiotic susceptibility class,host strain YMC14/02/R2781,R
same,antibiotic susceptibility test value,host strain YMC14/02/R2781,16
same,antibiotic susceptibility class,host strain YMC14/02/R3106,R
same,antibiotic susceptibility test value,host strain YMC14/02/R3106,16
same,antibiotic susceptibility class,host strain YMC14/02/R3419,R
same,antibiotic susceptibility test value,host strain YMC14/02/R3419,16
same,antibiotic susceptibility class,host strain YMC14/02/U1607,R
same,antibiotic susceptibility test value,host strain YMC14/02/U1607,16
same,antibiotic susceptibility class,host strain YMC14/03/L9,R
same,antibiotic susceptibility test value,host strain YMC14/03/L9,16
same,antibiotic susceptibility class,host strain YMC14/03/P471,S
same,antibiotic susceptibility test value,host strain YMC14/03/P471,2
same,antibiotic susceptibility class,host strain YMC14/03/R122,R
same,antibiotic susceptibility test value,host strain YMC14/03/R122,16
same,antibiotic susceptibility class,host strain YMC14/03/R217,R
same,antibiotic susceptibility test value,host strain YMC14/03/R217,16
same,antibiotic susceptibility class,host strain YMC14/03/R380,R
same,antibiotic susceptibility test value,host strain YMC14/03/R380,16
same,antibiotic susceptibility class,host strain YMC14/03/R618,S
same,antibiotic susceptibility test value,host strain YMC14/03/R618,2
same,antibiotic susceptibility class,host strain YMC14/03/R2144,R
same,antibiotic susceptibility test value,host strain YMC14/03/R2144,16
same,antibiotic susceptibility class,host strain YMC14/03/U4616,R
same,antibiotic susceptibility test value,host strain YMC14/03/U4616,16
same,antibiotic susceptibility class,host strain YMC14/04/R1078,S
same,antibiotic susceptibility test value,host strain YMC14/04/R1078,2
same,antibiotic susceptibility class,host strain YMC14/04/R1080,S
same,antibiotic susceptibility test value,host strain YMC14/04/R1080,2
same,antibiotic susceptibility S/I/R,host strain YMC14/06/R2359,R
same,antibiotic susceptibility value,host strain YMC14/06/R2359,16
same,susceptibility category (S/I/R),host strain YMC14/06/R2359,R
same,susceptibility test value (number given before S/I/R),host strain YMC14/06/R2359,16
same,antibiotic susceptibility S/I/R,host strain YMC14/08/R1169,R
same,antibiotic susceptibility value,host strain YMC14/08/R1169,16
same,susceptibility category (S/I/R),host strain YMC14/08/R1169,R
same,susceptibility test value (number given before S/I/R),host strain YMC14/08/R1169,16
same,antibiotic susceptibility S/I/R,host strain YMC14/08/T90,R
same,antibiotic susceptibility value,host strain YMC14/08/T90,16
same,susceptibility category (S/I/R),host strain YMC14/08/T90,R
same,susceptibility test value (number given before S/I/R),host strain YMC14/08/T90,16
same,antibiotic susceptibility S/I/R,host strain YMC15/02/R436,R
same,antibiotic susceptibility value,host strain YMC15/02/R436,16
same,susceptibility category (S/I/R),host strain YMC15/02/R436,R
same,susceptibility test value (number given before S/I/R),host strain YMC15/02/R436,16
same,antibiotic susceptibility S/I/R,host strain YMC15/02/T28,R
same,antibiotic susceptibility value,host strain YMC15/02/T28,16
same,susceptibility category (S/I/R),host strain YMC15/02/T28,R
same,susceptibility test value (number given before S/I/R),host strain YMC15/02/T28,16
same,antibiotic susceptibility S/I/R,host strain YMC15/03/R1604,R
same,antibiotic susceptibility value,host strain YMC15/03/R1604,16
same,susceptibility category (S/I/R),host strain YMC15/03/R1604,R
same,susceptibility test value (number given before S/I/R),host strain YMC15/03/R1604,16
same,antibiotic susceptibility S/I/R,host strain YMC15/09/R1869,R
same,antibiotic susceptibility value,host strain YMC15/09/R1869,16
same,susceptibility category (S/I/R),host strain YMC15/09/R1869,R
same,susceptibility test value (number given before S/I/R),host strain YMC15/09/R1869,16
same,antibiotic susceptibility S/I/R,host strain YMC16/01/P11,R
same,antibiotic susceptibility value,host strain YMC16/01/P11,16
same,susceptibility category (S/I/R),host strain YMC16/01/P11,R
same,susceptibility test value (number given before S/I/R),host strain YMC16/01/P11,16
same,antibiotic susceptibility S/I/R,host strain YMC16/01/R123,R
same,antibiotic susceptibility value,host strain YMC16/01/R123,16
same,susceptibility category (S/I/R),host strain YMC16/01/R123,R
same,susceptibility test value (number given before S/I/R),host strain YMC16/01/R123,16
same,antibiotic susceptibility S/I/R,host strain YMC16/01/R198,R
same,antibiotic susceptibility value,host strain YMC16/01/R198,16
same,susceptibility category (S/I/R),host strain YMC16/01/R198,R
same,susceptibility test value (number given before S/I/R),host strain YMC16/01/R198,16
same,antibiotic susceptibility S/I/R,host strain YMC16/01/R353,R
